Assay results published in the supplement of paper PMC11061612.

Legend:
Test in all cases: Bliss excess, mean over the matrix (fraction); higher = more synergy
UACC-62 (Melanoma) = tested on: UACC-62 (Melanoma)
Summary of the method: (§1)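 Bliss excess equals the observed combination effect minus the expected value EA + EB − EA·EB, where EA and EB are the effects of each agent alone. Combination Emax is the second-highest inhibition within the matrix. Inhibition was scaled from CellTiter-Glo 2.0 luminescence, with 0 set by vehicle wells and 1 by blank wells, after 72 hours of two-drug dosing of cells plated in 1536-well plates.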

[1] = tested on: OVCAR-4 (Ovarian Carcinoma)
Summary of the method: as §1

[2] = tested on: C-4-I (Cervical Carcinoma)
Summary of the method: as §1

[3] = tested on: AMO-1 (Plasma Cell Myeloma)
Summary of the method: as §1

[4] = tested on: SU8686 (Pancreatic Carcinoma)
Summary of the method: as §1

[5] = tested on: NCI-H727 (Other Solid Carcinomas)
Summary of the method: as §1

[6] = tested on: MLMA (Other Blood Carcinomas)
Summary of the method: as §1

[7] = tested on: VA-ES-BJ (Other Solid Carcinomas)
Summary of the method: as §1

PWR-1E (Non-Cancerous) = tested on: PWR-1E (Non-Cancerous)
Summary of the method: as §1

[8] = tested on: MIA-PaCa-2 (Pancreatic Carcinoma)
Summary of the method: as §1

[9] = tested on: SW13 (Other Solid Carcinomas)
Summary of the method: as §1

[10] = tested on: BT-549 (Breast Carcinoma)
Summary of the method: as §1

[11] = tested on: HGC-27 (Gastric Carcinoma)
Summary of the method: as §1

EW-24 (Ewing's Sarcoma) = tested on: EW-24 (Ewing's Sarcoma)
Summary of the method: as §1

[12] = tested on: EoL-1-cell (Acute Myeloid Leukemia)
Summary of the method: as §1

D-263MG (Glioblastoma) = tested on: D-263MG (Glioblastoma)
Summary of the method: as §1

[13] = tested on: RF-48 (B-Cell Non-Hodgkin's Lymphoma)
Summary of the method: as §1

NB69 (Neuroblastoma) = tested on: NB69 (Neuroblastoma)
Summary of the method: as §1

[14] = tested on: EFM-19 (Breast Carcinoma)
Summary of the method: as §1

[15] = tested on: NCI-H1915 (Non-Small Cell Lung Carcinoma)
Summary of the method: as §1

| Structure (SMILES) | Bliss excess (UACC-62 (Melanoma)) | Bliss excess [1] | Bliss excess [2] | Bliss excess [3] | Bliss excess [4] | Bliss excess [5] | Bliss excess [6] | Bliss excess [7] | Bliss excess (PWR-1E (Non-Cancerous)) | Bliss excess [8] | Bliss excess [9] | Bliss excess [10] | Bliss excess [11] | Bliss excess (EW-24 (Ewing's Sarcoma)) | Bliss excess [12] | Bliss excess (D-263MG (Glioblastoma)) | Bliss excess [13] | Bliss excess (NB69 (Neuroblastoma)) | Bliss excess [14] | Bliss excess [15] |
| --- | --- | --- | --- | --- | --- | --- | --- | --- | --- | --- | --- | --- | --- | --- | --- | --- | --- | --- | --- | --- |
| COc1cccc(OCCCN)c1-c1cc(Nc2cnc(C#N)cn2)n[nH]1 [Prexasertib] + O=C(c1cc(Cc2n[nH]c(=O)c3ccccc23)ccc1F)N1CCN(C(=O)C2CC2)CC1 [Olaparib] (first compound max 1 µM, 7x7, partner max 10 µM) | -0.0183 | -0.0589 | -0.0783 | -0.0584 | -0.0504 | -0.259 | -0.0442 | -0.0337 | -0.211 | -0.0781 | 0.0024 | 0.0195 | 0.044 | -0.0292 | -0.0146 | -0.0665 | -0.0216 | -0.0313 | -0.0094 | -0.0002 |
| COc1nnc2ccc(N3CCC(c4ccc(OCCN5CCN(C)C(=O)[C@H]5C)cc4)CC3)nn12 [AZD5153] + Cc1c2c(nn1C)CSCc1cc(n(C)n1)CSc1cc(c3ccccc3c1)OCCCc1c(C(=O)O)n(C)c3c-2c(Cl)ccc13 [AZD5991] (first compound max 1 µM, 7x7, partner max 1 µM) | 0.0084 | -0.0152 | 0.0867 | -0.0514 | -0.0221 | -0.0398 | -0.0085 | -0.0174 | 0.0557 | 0.0438 | 0.0258 | 0.0452 | -0.0471 | -0.0044 | -0.0073 | 0.105 | -0.0863 | -0.0334 | 0.059 | -0.0343 |
| CN(C)CCCOc1ccc(-c2ccc3ncc4c(c3c2)n(C2CCOCC2)c(=O)n4C)cn1 [AZD0156] + O=C(c1cc(Cc2n[nH]c(=O)c3ccccc23)ccc1F)N1CCN(C(=O)C2CC2)CC1 [Olaparib] (first compound max 3 µM, partner max 3 µM) | -0.028 | -0.0137 | 0.0867 | 0.0066 | -0.0011 | -0.0333 | 0.0255 | -0.0267 | 0.286 | -0.038 | 0.0694 | -0.0436 | 0.0997 | -0.0624 | 0.237 | 0.0132 | 0.0064 | 0.0875 | 0.0014 | 0.0032 |
| CC1(C)CCC(CN2CCN(c3ccc(C(=O)NS(=O)(=O)c4ccc(NCC5CCOCC5)c([N+](=O)[O-])c4)c(Oc4cnc5[nH]ccc5c4)c3)CC2)=C(c2ccc(Cl)cc2)C1 [Venetoclax] + C1CN(CCC1(C(=O)N[C@@H](CCO)C2=CC=C(C=C2)Cl)N)C3=NC=NC4=C3C=CN4 [Capivasertib] (first compound max 1 µM, 7x7, partner max 3 µM) | -0.0238 | -0.0393 | -0.0099 | -0.0267 | -0.0379 | -0.0539 | -0.0425 | -0.0357 | -0.0161 | -0.0384 | -0.0238 | -0.0385 | -0.0002 | -0.0113 | 0.0239 | -0.0151 | 0.0226 | 0.0242 | -0.0925 | -0.0362 |
| NC1(C(=O)N[C@@H](CCO)c2ccc(Cl)cc2)CCN(c2ncnc3[nH]ccc23)CC1 [Capivasertib] + CC(=O)c1c(C)c2cnc(Nc3ccc(N4CCNCC4)cn3)nc2n(C2CCCC2)c1=O [Palbociclib] (first compound max 10 µM, 7x7, partner max 10 µM) | -0.057 | -0.0517 | -0.0334 | 0.0364 | -0.0465 | -0.0139 | -0.0769 | 0.0144 | -0.017 | 0.0767 | -0.0236 | -0.0064 | -0.0085 | 0.0087 | -0.0039 | 0.0117 | -0.0186 | -0.009 | -0.0107 | -0.0247 |
| CC1(C)CCC(CN2CCN(c3ccc(C(=O)NS(=O)(=O)c4ccc(NCC5CCOCC5)c([N+](=O)[O-])c4)c(Oc4cnc5[nH]ccc5c4)c3)CC2)=C(c2ccc(Cl)cc2)C1 [Venetoclax] + Cc1cc2ncnn2cc1Nc1ncc2c(n1)n(C1CCOCC1)c(=O)n2C [AZD7648] (first compound max 1 µM, 7x7, partner max 10 µM) | -0.0424 | -0.0163 | 0.0131 | -0.0116 | -0.0195 | -0.0634 | -0.0323 | -0.0341 | -0.0152 | -0.0218 | 0.0127 | -0.0328 | -0.0261 | -0.0699 | 0.0489 | -0.0572 | -0.0106 | 0.0069 | -0.0469 | 0.0029 |
| CC1(C)CCC(CN2CCN(c3ccc(C(=O)NS(=O)(=O)c4ccc(NCC5CCOCC5)c([N+](=O)[O-])c4)c(Oc4cnc5[nH]ccc5c4)c3)CC2)=C(c2ccc(Cl)cc2)C1 [Venetoclax] + C[C@@H]1COCCN1C2=NC(=NC(=C2)C3(CC3)[S@](=N)(=O)C)C4=C5C=CNC5=NC=C4 [AZD6738] (first compound max 1 µM, 7x7, partner max 10 µM) | -0.0196 | -0.0384 | -0.0398 | -0.0355 | -0.0285 | -0.0801 | -0.0275 | -0.0185 | -0.0747 | -0.0632 | 0.0075 | -0.0331 | -0.0099 | 0.0218 | 0.0267 | 0.0199 | -0.0039 | 0.0496 | -0.0814 | -0.0084 |
